ChEMBL document CHEMBL1127612, “Maleimidoethyl 3-(tri-n-butylstannyl)hippurate: a useful radioiodination reagent for protein radiopharmaceuticals to enhance target selective radioactivity localization” (J Med Chem, 1994)

What was measured:
Details in all cases: in vivo
Mus musculus [1] = experiment: Tested for biodistribution of radioactivity after 10 min of intravenous injection in mice intestine; type: ADME, organism-based
Mus musculus [2] = experiment: Tested for biodistribution of radioactivity after 48 hr of intravenous injection in mice neck; type: ADME, organism-based
Mus musculus [3] = experiment: Tested for biodistribution of radioactivity after 10 min of intravenous injection in mice liver; type: ADME, organism-based
Mus musculus [4] = experiment: Tested for biodistribution of radioactivity after 10 min of intravenous injection in mice blood; type: ADME, organism-based
Mus musculus [5] = experiment: Tested for biodistribution of radioactivity after 3h of intravenous injection in mice liver; type: ADME, organism-based
Mus musculus [6] = experiment: Tested for biodistribution of radioactivity after 48 hr of intravenous injection in mice intestine; type: ADME, organism-based
Mus musculus [7] = experiment: Tested for biodistribution of radioactivity after 24 hr of intravenous injection in mice urine; type: ADME, organism-based
Mus musculus [8] = experiment: Tested for biodistribution of radioactivity after 1 hr of intravenous injection in mice spleen; type: ADME, organism-based
Mus musculus [9] = experiment: Tested for biodistribution of radioactivity after 24 hr of intravenous injection in mice liver; type: ADME, organism-based
Mus musculus [10] = experiment: Tested for biodistribution of radioactivity after 10 min of intravenous injection in mice lung; type: ADME, organism-based
Mus musculus [11] = experiment: Tested for biodistribution of radioactivity after 3h of intravenous injection in mice stomach; type: ADME, organism-based
Mus musculus [12] = experiment: Tested for biodistribution of radioactivity after 24 hr of intravenous injection in mice neck; type: ADME, organism-based
Mus musculus [13] = experiment: Tested for biodistribution of radioactivity after 6 hr of intravenous injection in mice intestine; type: ADME, organism-based
Mus musculus [14] = experiment: Tested for biodistribution of radioactivity after 72 hr of intravenous injection in mice neck; type: ADME, organism-based
Mus musculus [15] = experiment: Tested for biodistribution of radioactivity after 72 hr of intravenous injection in mice stomach; type: ADME, organism-based
Mus musculus [16] = experiment: Tested for biodistribution of radioactivity after 1 hr of intravenous injection in mice blood; type: ADME, organism-based
Mus musculus [17] = experiment: Tested for biodistribution of radioactivity after 1 hr of intravenous injection in mice lung; type: ADME, organism-based
Mus musculus [18] = experiment: Tested for biodistribution of radioactivity after 6 hr of intravenous injection in mice liver; type: ADME, organism-based
Mus musculus [19] = experiment: Tested for biodistribution of radioactivity after 6 hr of intravenous injection in mice neck; type: ADME, organism-based
Mus musculus [20] = experiment: Tested for biodistribution of radioactivity after 24 hr of intravenous injection in mice feces; type: ADME, organism-based
Mus musculus [21] = experiment: Tested for biodistribution of radioactivity after 1 hr of intravenous injection in mice neck; type: ADME, organism-based
Mus musculus [22] = experiment: Tested for biodistribution of radioactivity after 3h of intravenous injection in mice spleen; type: ADME, organism-based
Mus musculus [23] = experiment: Tested for biodistribution of radioactivity after 24 hr of intravenous injection in mice lung; type: ADME, organism-based
Mus musculus [24] = experiment: Tested for biodistribution of radioactivity after 24 hr of intravenous injection in mice blood; type: ADME, organism-based
Mus musculus [25] = experiment: Tested for biodistribution of radioactivity after 10 min of intravenous injection in mice stomach; type: ADME, organism-based
Mus musculus [26] = experiment: Tested for biodistribution of radioactivity after 1 hr of intravenous injection in mice stomach; type: ADME, organism-based
Mus musculus [27] = experiment: Tested for biodistribution of radioactivity after 48 hr of intravenous injection in mice stomach; type: ADME, organism-based
Mus musculus [28] = experiment: Tested for biodistribution of radioactivity after 72 hr of intravenous injection in mice liver; type: ADME, organism-based
Mus musculus [29] = experiment: Tested for biodistribution of radioactivity after 48 hr of intravenous injection in mice kidneys; type: ADME, organism-based
Mus musculus [30] = experiment: Tested for biodistribution of radioactivity after 48 hr of intravenous injection in mice liver; type: ADME, organism-based
Mus musculus [31] = experiment: Tested for biodistribution of radioactivity after 24 hr of intravenous injection in mice kidneys; type: ADME, organism-based, Kidney
Mus musculus [32] = experiment: Tested for biodistribution of radioactivity after 48 hr of intravenous injection in mice spleen; type: ADME, organism-based
Mus musculus [33] = experiment: Tested for biodistribution of radioactivity after 24 hr of intravenous injection in mice stomach; type: ADME, organism-based
Mus musculus [34] = experiment: Tested for biodistribution of radioactivity after 72 hr of intravenous injection in mice blood; type: ADME, organism-based
Mus musculus [35] = experiment: Tested for biodistribution of radioactivity after 6 hr of intravenous injection in mice spleen; type: ADME, organism-based
Mus musculus [36] = experiment: Tested for biodistribution of radioactivity after 6 hr of intravenous injection in mice blood; type: ADME, organism-based
Mus musculus [37] = experiment: Tested for biodistribution of radioactivity after 72 hr of intravenous injection in mice spleen; type: ADME, organism-based
Mus musculus [38] = experiment: Tested for biodistribution of radioactivity after 72 hr of intravenous injection in mice kidneys; type: ADME, organism-based
Mus musculus [39] = experiment: Tested for biodistribution of radioactivity after 6 hr of intravenous injection in mice kidneys; type: ADME, organism-based, Kidney
Mus musculus [40] = experiment: Tested for biodistribution of radioactivity after 1 hr of intravenous injection in mice kidneys; type: ADME, organism-based, Kidney
Mus musculus [41] = experiment: Tested for biodistribution of radioactivity after 24 hr of intravenous injection in mice intestine; type: ADME, organism-based
Mus musculus [42] = experiment: Tested for biodistribution of radioactivity after 48 hr of intravenous injection in mice lung; type: ADME, organism-based
Mus musculus [43] = experiment: Tested for biodistribution of radioactivity after 10 min of intravenous injection in mice neck; type: ADME, organism-based
Mus musculus [44] = experiment: Tested for biodistribution of radioactivity after 72 hr of intravenous injection in mice lung; type: ADME, organism-based
Mus musculus [45] = experiment: Tested for biodistribution of radioactivity after 10 min of intravenous injection in mice spleen; type: ADME, organism-based
Mus musculus [46] = experiment: Tested for biodistribution of radioactivity after 3h of intravenous injection in mice neck; type: ADME, organism-based
Mus musculus [47] = experiment: Tested for biodistribution of radioactivity after 6 hr of intravenous injection in mice lung; type: ADME, organism-based
Mus musculus [48] = experiment: Tested for biodistribution of radioactivity after 1 hr of intravenous injection in mice liver; type: ADME, organism-based
Mus musculus [49] = experiment: Tested for biodistribution of radioactivity after 72 hr of intravenous injection in mice intestine; type: ADME, organism-based
Mus musculus [50] = experiment: Tested for biodistribution of radioactivity after 3h of intravenous injection in mice kidneys; type: ADME, organism-based, Kidney
Mus musculus [51] = experiment: Tested for biodistribution of radioactivity after 48 hr of intravenous injection in mice blood; type: ADME, organism-based
Mus musculus [52] = experiment: Tested for biodistribution of radioactivity after 24 hr of intravenous injection in mice spleen; type: ADME, organism-based
Mus musculus [53] = experiment: Tested for biodistribution of radioactivity after 3h of intravenous injection in mice lung; type: ADME, organism-based
Mus musculus [54] = experiment: Tested for biodistribution of radioactivity after 3h of intravenous injection in mice blood; type: ADME, organism-based
Mus musculus [55] = experiment: Tested for biodistribution of radioactivity after 10 min of intravenous injection in mice kidneys; type: ADME, organism-based
Mus musculus [56] = experiment: Tested for biodistribution of radioactivity after 1 hr of intravenous injection in mice intestine; type: ADME, organism-based
Mus musculus [57] = experiment: Tested for biodistribution of radioactivity after 3h of intravenous injection in mice intestine; type: ADME, organism-based
Mus musculus [58] = experiment: Tested for biodistribution of radioactivity after 6 hr of intravenous injection in mice stomach; type: ADME, organism-based

Structure (SMILES): N[C@@H](CSC1CC(=O)N(CCOC(=O)CNC(=O)c2cccc(I)c2)C1=O)C(=O)O (stereo partly drawn)
- Dose/organ (Mus musculus [1]): 0.8%
- Dose/organ (Mus musculus [2]): 0.16%
- Dose/organ (Mus musculus [3]): 9.81%
- Dose/organ (Mus musculus [4]): 33.64%
- Dose/organ (Mus musculus [5]): 6.43%
- Dose/organ (Mus musculus [6]): 0.4%
- Dose/organ (Mus musculus [7]): 23.39%
- Dose/organ (Mus musculus [8]): 4.84%
- Dose/organ (Mus musculus [9]): 2.46%
- Dose/organ (Mus musculus [10]): 10.37%
- Dose/organ (Mus musculus [11]): 1.04%
- Dose/organ (Mus musculus [12]): 0.32%
- Dose/organ (Mus musculus [13]): 1.27%
- Dose/organ (Mus musculus [14]): 0.09%
- Dose/organ (Mus musculus [15]): 0.14%
- Dose/g (Mus musculus [16]): 29.3%
- Dose/organ (Mus musculus [17]): 7.08%
- Dose/organ (Mus musculus [18]): 5.39%
- Dose/organ (Mus musculus [19]): 0.45%
- Dose/organ (Mus musculus [20]): 0.89%
- Dose/organ (Mus musculus [21]): 0.75%
- Dose/organ (Mus musculus [22]): 3.67%
- Dose/organ (Mus musculus [23]): 4.06%
- Dose/g (Mus musculus [24]): 9.64%
- Dose/organ (Mus musculus [25]): 0.54%
- Dose/organ (Mus musculus [26]): 0.92%
- Dose/organ (Mus musculus [27]): 0.2%
- Dose/organ (Mus musculus [28]): 1.05%
- Dose/organ (Mus musculus [29]): 1.12%
- Dose/organ (Mus musculus [30]): 1.53%
- Dose/organ (Mus musculus [31]): 2.08%
- Dose/organ (Mus musculus [32]): 0.92%
- Dose/organ (Mus musculus [33]): 0.28%
- Dose/g (Mus musculus [34]): 4.22%
- Dose/organ (Mus musculus [35]): 3.19%
- Dose/g (Mus musculus [36]): 20.31%
- Dose/organ (Mus musculus [37]): 0.49%
- Dose/organ (Mus musculus [38]): 0.82%
- Dose/organ (Mus musculus [39]): 4.45%
- Dose/organ (Mus musculus [40]): 5.35%
- Dose/organ (Mus musculus [41]): 0.67%
- Dose/organ (Mus musculus [42]): 1.98%
- Dose/organ (Mus musculus [43]): 0.34%
- Dose/organ (Mus musculus [44]): 1.52%
- Dose/organ (Mus musculus [45]): 7.15%
- Dose/organ (Mus musculus [46]): 0.51%
- Dose/organ (Mus musculus [47]): 7.6%
- Dose/organ (Mus musculus [48]): 8.51%
- Dose/organ (Mus musculus [49]): 0.28%
- Dose/organ (Mus musculus [50]): 5%
- Dose/g (Mus musculus [51]): 5.78%
- Dose/organ (Mus musculus [52]): 1.41%
- Dose/organ (Mus musculus [53]): 8.06%
- Dose/g (Mus musculus [54]): 25.11%
- Dose/organ (Mus musculus [55]): 6.08%
- Dose/organ (Mus musculus [56]): 1.96%
- Dose/organ (Mus musculus [57]): 1.93%
- Dose/organ (Mus musculus [58]): 0.84%
